Laboratory results: ChEMBL document CHEMBL5370535, “Thiazolyl hydrazineylidenyl indolones as unique potential multitargeting broad-spectrum antimicrobial agents” (Eur J Med Chem, 2023)
Values after ≈ are worked out from the molar mass of the structure shown.

Legend:
Assay type in all cases: functional
Staphylococcus aureus [1] = assay: Antibacterial activity against methicillin-resistant Staphylococcus aureus assessed as bacterial growth inhibition incubated for 24 hrs by CLSI based two serial dilution assay
Enterococcus faecalis = assay: Antibacterial activity against Enterococcus faecalis assessed as bacterial growth inhibition incubated for 24 hrs by CLSI based two serial dilution assay
Staphylococcus aureus [2] = assay: Antibacterial activity against Staphylococcus aureus assessed as bacterial growth inhibition incubated for 24 hrs by CLSI based two serial dilution assay
Staphylococcus aureus [3] = assay: Antibacterial activity against Staphylococcus aureus 25923 assessed as bacterial growth inhibition incubated for 24 hrs by CLSI based two serial dilution assay
Staphylococcus aureus [4] = assay: Antibacterial activity against Staphylococcus aureus 29213 assessed as bacterial growth inhibition incubated for 24 hrs by CLSI based two serial dilution assay
Klebsiella pneumoniae = assay: Antibacterial activity against Klebsiella pneumoniae assessed as bacterial growth inhibition incubated for 24 hrs by CLSI based two serial dilution assay
Escherichia coli [5] = assay: Antibacterial activity against Escherichia coli assessed as bacterial growth inhibition incubated for 24 hrs by CLSI based two serial dilution assay
Escherichia coli [6] = assay: Antibacterial activity against Escherichia coli 25922 assessed as bacterial growth inhibition incubated for 24 hrs by CLSI based two serial dilution assay
Pseudomonas aeruginosa [7] = assay: Antibacterial activity against Pseudomonas aeruginosa assessed as bacterial growth inhibition incubated for 24 hrs by CLSI based two serial dilution assay
Pseudomonas aeruginosa [8] = assay: Antibacterial activity against Pseudomonas aeruginosa ATCC 27853 assessed as bacterial growth inhibition incubated for 24 hrs by CLSI based two serial dilution assay
Acinetobacter baumannii = assay: Antibacterial activity against Acinetobacter baumannii assessed as bacterial growth inhibition incubated for 24 hrs by CLSI based two serial dilution assay
Candida albicans [9] = assay: Antifungal activity against Candida albicans assessed as inhibition of fungal growth incubated for 24 hrs by CLSI based two serial dilution assay
Candida albicans [10] = assay: Antifungal activity against Candida albicans ATCC 90023 assessed as inhibition of fungal growth incubated for 24 hrs by CLSI based two serial dilution assay
Candida tropicalis = assay: Antifungal activity against Candida tropicalis assessed as inhibition of fungal growth incubated for 24 hrs by CLSI based two serial dilution assay
Candida parapsilosis = assay: Antifungal activity against Candida parapsilosis ATCC 22019 assessed as inhibition of fungal growth incubated for 24 hrs by CLSI based two serial dilution assay; conditions: Lodderomyces parapsilosis
Aspergillus fumigatus = assay: Antifungal activity against Aspergillus fumigatus assessed as inhibition of fungal growth incubated for 24 hrs by CLSI based two serial dilution assay

Row | Compound | MIC (Staphylococcus aureus [1]) [µM] | MIC (Enterococcus faecalis) [µM] | MIC (Staphylococcus aureus [2]) [µM] | MIC (Staphylococcus aureus [3]) [µM] | MIC (Staphylococcus aureus [4]) [µM] | MIC (Klebsiella pneumoniae) [µM] | MIC (Escherichia coli [5]) [µM] | MIC (Escherichia coli [6]) [µM] | MIC (Pseudomonas aeruginosa [7]) [µM] | MIC (Pseudomonas aeruginosa [8]) [µM] | MIC (Acinetobacter baumannii) [µM] | MIC (Candida albicans [9]) [µM] | MIC (Candida albicans [10]) [µM] | MIC (Candida tropicalis) [µM] | MIC (Candida parapsilosis) [µM] | MIC (Aspergillus fumigatus) [µM]
1 | C=CCN1C(=O)/C(=N\Nc2nccs2)c2ccccc21 | 512 (≈ 146 µg/mL) | 64 (≈ 18.2 µg/mL) | 64 (≈ 18.2 µg/mL) | 128 (≈ 36.4 µg/mL) | 128 (≈ 36.4 µg/mL) | 256 (≈ 72.8 µg/mL) | 64 (≈ 18.2 µg/mL) | 512 (≈ 146 µg/mL) | 512 (≈ 146 µg/mL) | 16 (≈ 4.55 µg/mL) | 512 (≈ 146 µg/mL) | 256 (≈ 72.8 µg/mL) | 512 (≈ 146 µg/mL) | 32 (≈ 9.1 µg/mL) | 128 (≈ 36.4 µg/mL) | 4 (≈ 1.14 µg/mL)
2 | O=C1/C(=N\Nc2nccs2)c2ccccc2N1Cc1ccc(F)cc1 | 128 (≈ 45.1 µg/mL) | 2 (≈ 0.705 µg/mL) | 64 (≈ 22.6 µg/mL) | 4 (≈ 1.41 µg/mL) | 4 (≈ 1.41 µg/mL) | 16 (≈ 5.64 µg/mL) | 16 (≈ 5.64 µg/mL) | 16 (≈ 5.64 µg/mL) | 16 (≈ 5.64 µg/mL) | 4 (≈ 1.41 µg/mL) | 16 (≈ 5.64 µg/mL) | 32 (≈ 11.3 µg/mL) | 128 (≈ 45.1 µg/mL) | 32 (≈ 11.3 µg/mL) | 64 (≈ 22.6 µg/mL) | 128 (≈ 45.1 µg/mL)
3 | CCCCN1C(=O)/C(=N\Nc2nccs2)c2c(Cl)cccc21 | 256 (≈ 85.7 µg/mL) | 128 (≈ 42.9 µg/mL) | 512 (≈ 171 µg/mL) | 512 (≈ 171 µg/mL) | 1 (≈ 0.335 µg/mL) | 1 (≈ 0.335 µg/mL) | 256 (≈ 85.7 µg/mL) | 512 (≈ 171 µg/mL) | 1 (≈ 0.335 µg/mL) | 128 (≈ 42.9 µg/mL) | 256 (≈ 85.7 µg/mL) | 256 (≈ 85.7 µg/mL) | 512 (≈ 171 µg/mL) | 128 (≈ 42.9 µg/mL) | 16 (≈ 5.36 µg/mL) | 256 (≈ 85.7 µg/mL)
4 | CCCCN1C(=O)/C(=N\Nc2nccs2)c2cccc(Cl)c21 | 0.5 (≈ 0.167 µg/mL) | 1 (≈ 0.335 µg/mL) | 64 (≈ 21.4 µg/mL) | 0.5 (≈ 0.167 µg/mL) | 64 (≈ 21.4 µg/mL) | 0.5 (≈ 0.167 µg/mL) | 1 (≈ 0.335 µg/mL) | 0.5 (≈ 0.167 µg/mL) | 1 (≈ 0.335 µg/mL) | 0.5 (≈ 0.167 µg/mL) | 0.5 (≈ 0.167 µg/mL) | 0.5 (≈ 0.167 µg/mL) | 1 (≈ 0.335 µg/mL) | 4 (≈ 1.34 µg/mL) | 32 (≈ 10.7 µg/mL) | 128 (≈ 42.9 µg/mL)
5 | CCCCN1C(=O)/C(=N\Nc2nc(C)cs2)c2ccccc21 | 2 (≈ 0.629 µg/mL) | 16 (≈ 5.03 µg/mL) | 32 (≈ 10.1 µg/mL) | 8 (≈ 2.52 µg/mL) | 32 (≈ 10.1 µg/mL) | 4 (≈ 1.26 µg/mL) | 16 (≈ 5.03 µg/mL) | 4 (≈ 1.26 µg/mL) | 1 (≈ 0.314 µg/mL) | 512 (≈ 161 µg/mL) | 4 (≈ 1.26 µg/mL) | 256 (≈ 80.5 µg/mL) | 1 (≈ 0.314 µg/mL) | 4 (≈ 1.26 µg/mL) | 256 (≈ 80.5 µg/mL) | 64 (≈ 20.1 µg/mL)
6 | CCCCN1C(=O)/C(=N\Nc2nccs2)c2cc(Br)cc(Br)c21 | 1 (≈ 0.458 µg/mL) | 0.5 (≈ 0.229 µg/mL) | 16 (≈ 7.33 µg/mL) | 0.5 (≈ 0.229 µg/mL) | 16 (≈ 7.33 µg/mL) | 0.5 (≈ 0.229 µg/mL) | 1 (≈ 0.458 µg/mL) | 1 (≈ 0.458 µg/mL) | 1 (≈ 0.458 µg/mL) | 512 (≈ 235 µg/mL) | 512 (≈ 235 µg/mL) | 0.5 (≈ 0.229 µg/mL) | 1 (≈ 0.458 µg/mL) | 1 (≈ 0.458 µg/mL) | 128 (≈ 58.6 µg/mL) | 512 (≈ 235 µg/mL)
7 | CCCCCCN1C(=O)/C(=N\Nc2nccs2)c2ccccc21 | 64 (≈ 21 µg/mL) | 4 (≈ 1.31 µg/mL) | 16 (≈ 5.26 µg/mL) | 32 (≈ 10.5 µg/mL) | 2 (≈ 0.657 µg/mL) | 16 (≈ 5.26 µg/mL) | 64 (≈ 21 µg/mL) | 16 (≈ 5.26 µg/mL) | 4 (≈ 1.31 µg/mL) | 32 (≈ 10.5 µg/mL) | 16 (≈ 5.26 µg/mL) | 32 (≈ 10.5 µg/mL) | 64 (≈ 21 µg/mL) | 16 (≈ 5.26 µg/mL) | 64 (≈ 21 µg/mL) | 32 (≈ 10.5 µg/mL)
8 | CCCCCCCCCCCCN1C(=O)/C(=N\Nc2nccs2)c2ccccc21 | 128 (≈ 52.8 µg/mL) | 4 (≈ 1.65 µg/mL) | 32 (≈ 13.2 µg/mL) | 4 (≈ 1.65 µg/mL) | 4 (≈ 1.65 µg/mL) | 32 (≈ 13.2 µg/mL) | 64 (≈ 26.4 µg/mL) | 32 (≈ 13.2 µg/mL) | 16 (≈ 6.6 µg/mL) | 16 (≈ 6.6 µg/mL) | 64 (≈ 26.4 µg/mL) | 32 (≈ 13.2 µg/mL) | 128 (≈ 52.8 µg/mL) | 16 (≈ 6.6 µg/mL) | 64 (≈ 26.4 µg/mL) | 32 (≈ 13.2 µg/mL)
9 | O=C1Nc2ccccc2/C1=N/Nc1nccs1 | 128 (≈ 31.3 µg/mL) | 128 (≈ 31.3 µg/mL) | 512 (≈ 125 µg/mL) | 128 (≈ 31.3 µg/mL) | 128 (≈ 31.3 µg/mL) | 512 (≈ 125 µg/mL) | 256 (≈ 62.5 µg/mL) | 128 (≈ 31.3 µg/mL) | 512 (≈ 125 µg/mL) | 128 (≈ 31.3 µg/mL) | 64 (≈ 15.6 µg/mL) | 256 (≈ 62.5 µg/mL) | 128 (≈ 31.3 µg/mL) | 256 (≈ 62.5 µg/mL) | 64 (≈ 15.6 µg/mL) | 32 (≈ 7.82 µg/mL)
10 | OC(Cn1cncn1)(Cn1cncn1)c1ccc(F)cc1F [FLUCONAZOLE] | – | – | – | – | – | – | – | – | – | – | – | 4 (≈ 1.23 µg/mL) | 2 (≈ 0.613 µg/mL) | 8 (≈ 2.45 µg/mL) | 4 (≈ 1.23 µg/mL) | 256 (≈ 78.4 µg/mL)
11 | C=CC1=C(C(=O)O)N2C(=O)[C@@H](NC(=O)/C(=N\O)c3csc(N)n3)[C@H]2SC1 [CEFDINIR] | 1 (≈ 0.395 µg/mL) | 2 (≈ 0.791 µg/mL) | 1 (≈ 0.395 µg/mL) | 0.5 (≈ 0.198 µg/mL) | 0.5 (≈ 0.198 µg/mL) | 0.5 (≈ 0.198 µg/mL) | 1 (≈ 0.395 µg/mL) | 2 (≈ 0.791 µg/mL) | 0.5 (≈ 0.198 µg/mL) | 1 (≈ 0.395 µg/mL) | 2 (≈ 0.791 µg/mL) | – | – | – | – | –
12 | O=C(N[C@H](CO)[C@H](O)c1ccc([N+](=O)[O-])cc1)C(Cl)Cl [CHLORAMPHENICOL] | 16 (≈ 5.17 µg/mL) | 8 (≈ 2.59 µg/mL) | 8 (≈ 2.59 µg/mL) | 8 (≈ 2.59 µg/mL) | 4 (≈ 1.29 µg/mL) | 8 (≈ 2.59 µg/mL) | 32 (≈ 10.3 µg/mL) | 16 (≈ 5.17 µg/mL) | 32 (≈ 10.3 µg/mL) | 8 (≈ 2.59 µg/mL) | 16 (≈ 5.17 µg/mL) | – | – | – | – | –
